Values after ≈ are worked out from the molar mass of the structure shown.
Tests used:
Assay type in all cases: cell-based
[1] = tested on: Staphylococcus aureus SG 511; assay: Serial dilution test in the microtiter system, MIC against S. aureus SG 511; details: SG511, minimum inhibitory concentration, 37° C., 18 to 20 hours
Method: (§1) The tests were performed using the serial dilution test in the microtiter system. The effect of the test compounds on bacteriostasis was examined at the following concentrations: 80, 40, 20, 10, 5, 2.5, 1.25, 0.6, 0.3, 0.08 and 0.02 μgm/ml. The nutrient medium consisted of 10 gm of peptone, 8 gm of meat extract oxoid, 3 gm of sodium chloride, and 2 gm of sec. sodium phosphate diluted with distilled water to […] (pH 7.2-7.4). Only in the test against streptococci 1% of glucose was added. The age of the primary cultures was approximately 20 hours. The standardization of the bacteria suspension was effected using a photometer according to the method of Eppendorf (test tube .phi. 14 mm, filter 546 nm), using for comparison a barium sulfate suspension formed by the addition of 3.0 ml of 1% barium chloride solution to 97 ml of 1% sulfuric acid. After the standardization,Streptococcus aronson was further diluted to a concentration of 1:15, and the other bacteria to a concentration of 1:1500, using a sodium chloride solution.
(§2) 16 mgm of the particular test compound were put into a 10 ml measuring flask, and the flask was subsequently filled to the mark with solvent. The further dilution series was standardized with distilled water or the appropriate solvent.
(§3) The cavities of the microtiter plates were filled with 0.2 ml of nutrient medium. 0.01 ml of the appropriate test compound solution was then added, followed by inoculation with 0.01 ml of the standardized bacteria suspension. The bacteria were incubated at 37° C. for 18 to 20 hours. Control tests using only the solvent were carried out simultaneously.
(§4) The measurement was carried out macroscopically to determine the minimum inhibitory concentration (the lowest still bacteriostatically effective concentration).
(§5) The following test organisms were used:
(§6) Staphylococcus aureus SG 511, St. aureus E 88 (β-lactamase carrier), Escherichia coli ATCC 11 775, Pseudomonas aeruginosa Hamburgensis and Pseudomonas aeruginosa Walter, Serratia macrescens ATCC 13 880, Klebsiella pneumoniae ATCC 10 031 and 272, Proteus mirabilis Hamburgensis, Proteus rettgeri Eb. cloaceae ATCC 13047, and E. coli R+TEM (β-lactamase carrier).
(§7) The following tables show the determined minimum inhibitory concentrations (MIC) for a few representative compounds (E=Na) of the present invention, and two known cephalosporins for comparison: […]

St. aureus E 88 = assay: Serial dilution test in the microtiter system, MIC against S. aureus E 88 (β-lactamase carrier); details: Staphylococcus aureus, E88, minimum inhibitory concentration, 37° C., 18 to 20 hours
Method: as §1, §2, §3, §4, §5, §6, §7

[2] = tested on: Escherichia coli ATCC 11 775; assay: Serial dilution test in the microtiter system, MIC against E. coli ATCC 11775; details: minimum inhibitory concentration, 37° C., 18 to 20 hours
Method: as §1, §2, §3, §4, §5, §6, §7

[3] = tested on: Pseudomonas aeruginosa Hamburgensis; assay: Serial dilution test in the microtiter system, MIC against Pseudomonas aeruginosa Hamburgensis; details: minimum inhibitory concentration, 37° C., 18 to 20 hours, read-out: MIC, Pseud. aerug. Hbg.
Method: as §1, §2, §3, §4, §5, §6, §7

[4] = tested on: Pseudomonas aeruginosa Walter; assay: Serial dilution test in the microtiter system, MIC against Pseudomonas aeruginosa Walter; details: minimum inhibitory concentration, 37° C., 18 to 20 hours, read-out: MIC, Pseud. aerug. Walter
Method: as §1, §2, §3, §4, §5, §6, §7

[5] = tested on: Klebsiella pneumoniae ATCC 10 031; assay: Serial dilution test in the microtiter system, MIC against Klebsiella pneumoniae ATCC 10031; details: minimum inhibitory concentration, 37° C., 18 to 20 hours, read-out: MIC, Klebs. pneum. ATCC 10031
Method: as §1, §2, §3, §4, §5, §6, §7

[6] = tested on: Klebsiella pneumoniae 272; assay: Serial dilution test in the microtiter system, MIC against Klebsiella pneumoniae 272; details: minimum inhibitory concentration, 37° C., 18 to 20 hours, read-out: MIC, Klebs. pneum. 272
Method: as §1, §2, §3, §4, §5, §6, §7

[7] = tested on: Proteus mirabilis Hamburgensis; assay: Serial dilution test in the microtiter system, MIC against Proteus mirabilis Hamburgensis; details: minimum inhibitory concentration, 37° C., 18 to 20 hours, read-out: MIC, Prot. Mir. Hbg.
Method: as §1, §2, §3, §4, §5, §6, §7

Proteus rettgeri = assay: Serial dilution test in the microtiter system, MIC against Proteus rettgeri; details: Providencia rettgeri; minimum inhibitory concentration; 37° C., 18 to 20 hours; read-out: MIC, Prot. rettg.
Method: as §1, §2, §3, §4, §5, §6, §7

Eb. cloaceae ATCC 13047 = assay: Serial dilution test in the microtiter system, MIC against Eb. cloaceae ATCC 13047; details: minimum inhibitory concentration; 37° C., 18 to 20 hours
Method: as §1, §2, §3, §4, §5, §6, §7

E. coli R+TEM = assay: Serial dilution test in the microtiter system, MIC against E. coli R+TEM (β-lactamase carrier); details: Escherichia coli, read-out: MIC, E. coli R + TEM
Method: as §1, §2, §3, §4, §5, §6, §7

[8] = tested on: Serratia macrescens ATCC 13 880; assay: Serial dilution test in the microtiter system, MIC against Serratia marcescens ATCC 13880; details: read-out: MIC, Serr. marcesc. ATCC 13880
Method: as §1, §2, §3, §4, §5, §6, §7

Cc1nnc(SCC2=C(C(=O)O)N3C(=O)[C@@H](NC(=O)[C@H](NC(=O)Nc4cnc(NC5CCC(O)CC5)nc4O)c4ccc(O)cc4)[C@H]3SC2)s1 (stereo partly drawn) [G]
MIC [1]: 1 mg/L (≈ 1.34 µM)
MIC (St. aureus E 88): 16 mg/L (≈ 21.5 µM)
MIC [2]: 0.5 mg/L (≈ 0.672 µM)
MIC [3]: 16 mg/L (≈ 21.5 µM)
MIC [4]: 16 mg/L (≈ 21.5 µM)
MIC [5]: 2 mg/L (≈ 2.69 µM)
MIC [6]: 2 mg/L (≈ 2.69 µM)
MIC [7]: 0.5 mg/L (≈ 0.672 µM)
MIC (Proteus rettgeri): 1 mg/L (≈ 1.34 µM)
MIC (Eb. cloaceae ATCC 13047): 2 mg/L (≈ 2.69 µM)
MIC (E. coli R+TEM): 16 mg/L
MIC [8]: 2 mg/L (≈ 2.69 µM)

Cn1nnnc1SCC1=C(C(=O)O)N2C(=O)[C@@H](NC(=O)C(NC(=O)Nc3cnc(Nc4ccc(S(N)(=O)=O)cc4)nc3O)c3cccs3)[C@H]2SC1 (stereo partly drawn) [M]
MIC [1]: 0.5 mg/L (≈ 0.645 µM)
MIC (St. aureus E 88): 4 mg/L (≈ 5.16 µM)
MIC [2]: 0.13 mg/L (≈ 0.168 µM)
MIC [3]: 4 mg/L (≈ 5.16 µM)
MIC [4]: 4 mg/L (≈ 5.16 µM)
MIC [5]: 0.25 mg/L (≈ 0.323 µM)
MIC [6]: 0.25 mg/L (≈ 0.323 µM)
MIC [7]: 0.13 mg/L (≈ 0.168 µM)
MIC (Proteus rettgeri): 0.5 mg/L (≈ 0.645 µM)
MIC (Eb. cloaceae ATCC 13047): 0.5 mg/L (≈ 0.645 µM)
MIC (E. coli R+TEM): 4 mg/L
MIC [8]: 0.25 mg/L (≈ 0.323 µM)

CC(=O)Nc1nnc(SCC2=C(C(=O)O)N3C(=O)[C@@H](NC(=O)[C@H](NC(=O)Nc4cnc(NC5CCC(O)CC5)nc4O)c4ccc(O)cc4)[C@H]3SC2)s1 (stereo partly drawn) [D]
MIC [1]: 1 mg/L (≈ 1.27 µM)
MIC (St. aureus E 88): 8 mg/L (≈ 10.2 µM)
MIC [2]: 1 mg/L (≈ 1.27 µM)
MIC [3]: 8 mg/L (≈ 10.2 µM)
MIC [4]: 8 mg/L (≈ 10.2 µM)
MIC [5]: 2 mg/L (≈ 2.54 µM)
MIC [6]: 2 mg/L (≈ 2.54 µM)
MIC [7]: 1 mg/L (≈ 1.27 µM)
MIC (Proteus rettgeri): 8 mg/L (≈ 10.2 µM)
MIC (Eb. cloaceae ATCC 13047): 8 mg/L (≈ 10.2 µM)
MIC (E. coli R+TEM): 16 mg/L
MIC [8]: 4 mg/L (≈ 5.08 µM)

CNS(=O)(=O)c1ccc(Nc2ncc(NC(=O)N[C@@H](C(=O)N[C@@H]3C(=O)N4C(C(=O)O)=C(CSc5nnc(C)s5)CS[C@H]34)c3ccc(O)cc3)c(O)n2)cc1 [N]
MIC [1]: 1 mg/L (≈ 1.23 µM)
MIC (St. aureus E 88): 8 mg/L (≈ 9.82 µM)
MIC [2]: 0.25 mg/L (≈ 0.307 µM)
MIC [3]: 4 mg/L (≈ 4.91 µM)
MIC [4]: 4 mg/L (≈ 4.91 µM)
MIC [5]: 0.25 mg/L (≈ 0.307 µM)
MIC [6]: 0.5 mg/L (≈ 0.614 µM)
MIC [7]: 0.5 mg/L (≈ 0.614 µM)
MIC (Proteus rettgeri): 0.5 mg/L (≈ 0.614 µM)
MIC (Eb. cloaceae ATCC 13047): 1 mg/L (≈ 1.23 µM)
MIC (E. coli R+TEM): 4 mg/L
MIC [8]: 0.25 mg/L (≈ 0.307 µM)

CNS(=O)(=O)c1ccc(Nc2ncc(NC(=O)N[C@@H](C(=O)N[C@@H]3C(=O)N4C(C(=O)O)=C(COC(C)=O)CS[C@H]34)c3ccc(O)cc3)c(O)n2)cc1 [H]
MIC [1]: 1 mg/L (≈ 1.35 µM)
MIC (St. aureus E 88): 16 mg/L (≈ 21.5 µM)
MIC [2]: 0.13 mg/L (≈ 0.175 µM)
MIC [3]: 4 mg/L (≈ 5.39 µM)
MIC [4]: 4 mg/L (≈ 5.39 µM)
MIC [5]: 0.5 mg/L (≈ 0.673 µM)
MIC [6]: 0.5 mg/L (≈ 0.673 µM)
MIC [7]: 0.6 mg/L (≈ 0.808 µM)
MIC (Proteus rettgeri): 0.5 mg/L (≈ 0.673 µM)
MIC (Eb. cloaceae ATCC 13047): 2 mg/L (≈ 2.69 µM)
MIC (E. coli R+TEM): 16 mg/L
MIC [8]: 0.5 mg/L (≈ 0.673 µM)

Cn1nnnc1SCC1=C(C(=O)O)N2C(=O)[C@@H](NC(=O)C(NC(=O)Nc3cnc(NC4CCC(O)CC4)nc3O)c3cccs3)[C@H]2SC1 (stereo partly drawn) [F]
MIC [1]: 1 mg/L (≈ 1.39 µM)
MIC (St. aureus E 88): 8 mg/L (≈ 11.1 µM)
MIC [2]: 0.5 mg/L (≈ 0.697 µM)
MIC [3]: 16 mg/L (≈ 22.3 µM)
MIC [4]: 16 mg/L (≈ 22.3 µM)
MIC [5]: 2 mg/L (≈ 2.79 µM)
MIC [6]: 2 mg/L (≈ 2.79 µM)
MIC [7]: 0.5 mg/L (≈ 0.697 µM)
MIC (Proteus rettgeri): 2 mg/L (≈ 2.79 µM)
MIC (Eb. cloaceae ATCC 13047): 4 mg/L (≈ 5.57 µM)
MIC (E. coli R+TEM): 16 mg/L
MIC [8]: 2 mg/L (≈ 2.79 µM)

CNc1nnc(SCC2=C(C(=O)O)N3C(=O)[C@@H](NC(=O)[C@H](NC(=O)Nc4cnc(Nc5ccc(S(=O)(=O)NC)cc5)nc4O)c4ccc(O)cc4)[C@H]3SC2)s1 [J]
MIC [1]: 1 mg/L (≈ 1.2 µM)
MIC (St. aureus E 88): 16 mg/L (≈ 19.3 µM)
MIC [2]: 0.5 mg/L (≈ 0.602 µM)
MIC [3]: 8 mg/L (≈ 9.64 µM)
MIC [4]: 8 mg/L (≈ 9.64 µM)
MIC [5]: 0.5 mg/L (≈ 0.602 µM)
MIC [6]: 0.25 mg/L (≈ 0.301 µM)
MIC [7]: 0.25 mg/L (≈ 0.301 µM)
MIC (Proteus rettgeri): 1 mg/L (≈ 1.2 µM)
MIC (Eb. cloaceae ATCC 13047): 1 mg/L (≈ 1.2 µM)
MIC (E. coli R+TEM): 8 mg/L
MIC [8]: 0.5 mg/L (≈ 0.602 µM)

Cc1nnc(SCC2=C(C(=O)O)N3C(=O)[C@@H](NC(=O)Cn4cnnn4)[C@H]3SC2)s1 [Cephazolin, reference compound]
MIC [1]: 0.06 mg/L (≈ 0.132 µM)
MIC (St. aureus E 88): 8 mg/L (≈ 17.6 µM)
MIC [2]: 4 mg/L (≈ 8.8 µM)
MIC [3]: > 100 mg/L
MIC [4]: > 100 mg/L
MIC [5]: 1 mg/L (≈ 2.2 µM)
MIC [6]: 2 mg/L (≈ 4.4 µM)
MIC [7]: 4 mg/L (≈ 8.8 µM)
MIC (Proteus rettgeri): > 100 mg/L
MIC (Eb. cloaceae ATCC 13047): > 100 mg/L
MIC (E. coli R+TEM): 4 mg/L
MIC [8]: > 100 mg/L

Source: patent US4316898A, “Cephalosporins” (Boehringer Ingelheim KG, priority 1979, dated 1982)
